In PubChem BioAssay AID1259407 (Chemical Carcinogenesis Research Information System (CCRIS), 2018):
Activity calls are given as the source filed them. The rule behind the calls is not given here.

Tested on: CCRIS mutagenicity, Ames/micronucleus/aberration tests
Test: CCRIS mutagenicity studies
[1] = Test System: AMES SALMONELLA TYPHIMURIUM, Strain/Indicator: TA98, Metabolic Activation: NONE, Method: STANDARD PLATE
[2] = Test System: AMES SALMONELLA TYPHIMURIUM, Strain/Indicator: TA98, Metabolic Activation: RAT, LIVER, S-9, Method: STANDARD PLATE
[3] = Test System: AMES SALMONELLA TYPHIMURIUM, Strain/Indicator: TA100, Metabolic Activation: NONE, Method: PREINCUBATION
[4] = Test System: AMES SALMONELLA TYPHIMURIUM, Strain/Indicator: TA100, Metabolic Activation: NONE, Method: STANDARD PLATE
[5] = Test System: AMES SALMONELLA TYPHIMURIUM, Strain/Indicator: TA102, Metabolic Activation: NONE, Method: STANDARD PLATE
[6] = Test System: AMES SALMONELLA TYPHIMURIUM, Strain/Indicator: TA1535, Metabolic Activation: NONE, Method: STANDARD PLATE
[7] = Test System: AMES SALMONELLA TYPHIMURIUM, Strain/Indicator: TA1537, Metabolic Activation: NONE, Method: STANDARD PLATE
[8] = Test System: AMES SALMONELLA TYPHIMURIUM, Strain/Indicator: TA98, Metabolic Activation: RAT, LIVER, S-9, AROCLOR 1254, Method: STANDARD PLATE
[9] = Test System: AMES SALMONELLA TYPHIMURIUM, Strain/Indicator: TA100, Metabolic Activation: RAT, LIVER, S-9, AROCLOR 1254, Method: STANDARD PLATE
[10] = Test System: AMES SALMONELLA TYPHIMURIUM, Strain/Indicator: TA98, Metabolic Activation: NONE, Method: PREINCUBATION

Measured: mutagenic call

CNC(=O)CSP(=S)(OC)OC
active: End Point: In vitro chromosomal aberrations, Test System: Human lymphocytes, Metabolic Activation: None active; positive (structural changes and ploidy) | Test System: AMES SALMONELLA TYPHIMURIUM, Strain/Indicator: G46, Metabolic Activation: HOST-MEDIATED, Method: STANDARD PLATE active; positive | [3] active; positive | Test System: AMES SALMONELLA TYPHIMURIUM, Strain/Indicator: TA100, Metabolic Activation: S-9 MIX, Method: STANDARD PLATE active; positive
inactive: Test System: AMES SALMONELLA TYPHIMURIUM, Strain/Indicator: TA97A, Metabolic Activation: NONE, Method: STANDARD PLATE inactive; negative | Test System: AMES SALMONELLA TYPHIMURIUM, Strain/Indicator: TA97A, Metabolic Activation: PLANT, HOMOGENATE, S-14, Method: STANDARD PLATE inactive; negative | Test System: AMES SALMONELLA TYPHIMURIUM, Strain/Indicator: TA97A, Metabolic Activation: S-9, Method: STANDARD PLATE inactive; negative | [1] inactive; negative | Test System: AMES SALMONELLA TYPHIMURIUM, Strain/Indicator: TA98, Metabolic Activation: PLANT, HOMOGENATE, S-14, Method: STANDARD PLATE inactive; negative | [2] inactive; negative | Test System: AMES SALMONELLA TYPHIMURIUM, Strain/Indicator: TA98, Metabolic Activation: S-9, NADPH GENERATING SYSTEM, Method: STANDARD PLATE inactive; negative | Test System: AMES SALMONELLA TYPHIMURIUM, Strain/Indicator: TA98, Metabolic Activation: S-9, Method: STANDARD PLATE inactive; negative | Test System: AMES SALMONELLA TYPHIMURIUM, Strain/Indicator: TA98, Metabolic Activation: WHEAT SEEDLING, S-14, Method: STANDARD PLATE inactive; negative | [4] inactive; negative | Test System: AMES SALMONELLA TYPHIMURIUM, Strain/Indicator: TA100, Metabolic Activation: PLANT, HOMOGENATE, S-14, Method: STANDARD PLATE inactive; negative | Test System: AMES SALMONELLA TYPHIMURIUM, Strain/Indicator: TA100, Metabolic Activation: S-9, Method: STANDARD PLATE inactive; negative | [5] inactive; negative | Test System: AMES SALMONELLA TYPHIMURIUM, Strain/Indicator: TA102, Metabolic Activation: RAT, LIVER, S-9, Method: STANDARD PLATE inactive; negative | Test System: AMES SALMONELLA TYPHIMURIUM, Strain/Indicator: TA102, Metabolic Activation: S-9, NADPH GENERATING SYSTEM, Method: STANDARD PLATE inactive; negative | Test System: AMES SALMONELLA TYPHIMURIUM, Strain/Indicator: TA102, Metabolic Activation: WHEAT SEEDLING, S-14, Method: STANDARD PLATE inactive; negative | [6] inactive; negative | Test System: AMES SALMONELLA TYPHIMURIUM, Strain/Indicator: TA1535, Metabolic Activation: PLANT, HOMOGENATE, S-14, Method: STANDARD PLATE inactive; negative | Test System: AMES SALMONELLA TYPHIMURIUM, Strain/Indicator: TA1535, Metabolic Activation: RAT, LIVER, S-9, Method: STANDARD PLATE inactive; negative | Test System: AMES SALMONELLA TYPHIMURIUM, Strain/Indicator: TA1535, Metabolic Activation: S-9, NADPH GENERATING SYSTEM, Method: STANDARD PLATE inactive; negative | Test System: AMES SALMONELLA TYPHIMURIUM, Strain/Indicator: TA1535, Metabolic Activation: S-9, Method: STANDARD PLATE inactive; negative | Test System: AMES SALMONELLA TYPHIMURIUM, Strain/Indicator: TA1535, Metabolic Activation: WHEAT SEEDLING, S-14, Method: STANDARD PLATE inactive; negative | [7] inactive; negative | Test System: AMES SALMONELLA TYPHIMURIUM, Strain/Indicator: TA1537, Metabolic Activation: S-9, NADPH GENERATING SYSTEM, Method: STANDARD PLATE inactive; negative

CCOP(=O)(NC(C)C)Oc1ccccc1C(=O)OC(C)C (centres undefined)
active: [1] active; positive | [2] active; positive
inactive: [4] inactive; negative | Test System: AMES SALMONELLA TYPHIMURIUM, Strain/Indicator: TA100, Metabolic Activation: RAT, LIVER, S-9, Method: STANDARD PLATE inactive; negative

COC1=CC(=O)c2nc(C)c3c([nH]c4ccccc43)c2C1=O
inactive: [1] inactive; negative | [9] inactive; negative | [5] inactive; negative | Test System: AMES SALMONELLA TYPHIMURIUM, Strain/Indicator: TA102, Metabolic Activation: RAT, LIVER, S-9, AROCLOR 1254, Method: STANDARD PLATE inactive; negative
active: Test System: AMES SALMONELLA TYPHIMURIUM, Strain/Indicator: TA97, Metabolic Activation: NONE, Method: STANDARD PLATE active; positive | Test System: AMES SALMONELLA TYPHIMURIUM, Strain/Indicator: TA97, Metabolic Activation: RAT, LIVER, S-9, AROCLOR 1254, Method: STANDARD PLATE active; positive | [8] active; positive | [4] active; positive

COc1ccc(-c2noc(CC(=O)O)c2-c2ccc(OC)cc2)cc1
inactive: [10] inactive; negative | Test System: AMES SALMONELLA TYPHIMURIUM, Strain/Indicator: TA98, Metabolic Activation: RAT, LIVER, S-9, PHENOBARBITAL AND 5,6-BENZOFLAVONE, Method: PREINCUBATION inactive; negative | [3] inactive; negative | Test System: AMES SALMONELLA TYPHIMURIUM, Strain/Indicator: TA100, Metabolic Activation: RAT, LIVER, S-9, PHENOBARBITAL AND 5,6-BENZOFLAVONE, Method: PREINCUBATION inactive; negative | Test System: AMES SALMONELLA TYPHIMURIUM, Strain/Indicator: TA1535, Metabolic Activation: NONE, Method: PREINCUBATION inactive; negative | Test System: AMES SALMONELLA TYPHIMURIUM, Strain/Indicator: TA1535, Metabolic Activation: RAT, LIVER, S-9, PHENOBARBITAL AND 5,6-BENZOFLAVONE, Method: PREINCUBATION inactive; negative | Test System: AMES SALMONELLA TYPHIMURIUM, Strain/Indicator: TA1537, Metabolic Activation: NONE, Method: PREINCUBATION inactive; negative | Test System: AMES SALMONELLA TYPHIMURIUM, Strain/Indicator: TA1537, Metabolic Activation: RAT, LIVER, S-9, PHENOBARBITAL AND 5,6-BENZOFLAVONE, Method: PREINCUBATION inactive; negative | Test System: E. COLI, Strain/Indicator: WP2 UVRA, Metabolic Activation: NONE, Method: PREINCUBATION inactive; negative | Test System: E. COLI, Strain/Indicator: WP2 UVRA, Metabolic Activation: RAT, LIVER, S-9, PHENOBARBITAL AND 5,6-BENZOFLAVONE, Method: PREINCUBATION inactive; negative

Cc1cc2ccccc2cc1[N+](=O)[O-]
inactive: [10] inactive; negative

O=S(=O)(Oc1ccc(Cl)c(Cl)c1)c1cccc2cccnc12
active: [8] active; positive | [9] active; positive
inactive: [1] inactive; negative | [4] inactive; negative | [6] inactive; negative | Test System: AMES SALMONELLA TYPHIMURIUM, Strain/Indicator: TA1535, Metabolic Activation: RAT, LIVER, S-9, AROCLOR 1254, Method: STANDARD PLATE inactive; negative | [7] inactive; negative | Test System: AMES SALMONELLA TYPHIMURIUM, Strain/Indicator: TA1537, Metabolic Activation: RAT, LIVER, S-9, AROCLOR 1254, Method: STANDARD PLATE inactive; negative
